Laboratory results: ChEMBL document CHEMBL5257038, “Active Natural Product Scaffolds against Trypanosomatid Parasites: A Review” (J Nat Prod, 2018)

Columns and labels:
[1] = Selectivity index, ratio of IC50 for cytotoxicity against rat L6 cells to IC50 for antitrypanosomal activity against bloodstream form of Trypanosoma brucei rhodesiense; type: toxicity, cell-based; settings: read-out: Ratio IC50
[2] = tested on: Trypanosoma brucei rhodesiense; assay: Antitrypanosomal activity against bloodstream form of Trypanosoma brucei rhodesiense assessed as parasite growth inhibition; type: functional, organism-based
[3] = tested on: Trypanosoma cruzi; assay: Antitrypanosomal activity against epimastigote form of Trypanosoma cruzi assessed as reduction in parasite growth; type: functional, organism-based
[4] = tested on: Leishmania donovani; assay: Antileishmanial activity against Leishmania donovani promastigotes assessed as parasite growth inhibition; type: functional, organism-based
[5] = tested on: Trypanosoma cruzi; assay: Antitrypanosomal activity against intracellular Trypanosoma cruzi amastigote assessed as reduction in parasite growth; type: functional, organism-based
[6] = tested on: Trypanosoma brucei brucei; assay: Antitrypanosomal activity against bloodstream form of Trypanosoma brucei brucei assessed as reduction in parasite growth; type: functional, organism-based
[7] = Selectivity index, ratio of IC50 for cytotoxicity against mouse peritoneal macrophage cells to IC50 for antitrypanosomal activity against bloodstream form of Trypanosoma brucei; type: toxicity, cell-based; settings: read-out: Ratio IC50
[8] = tested on: Trypanosoma brucei; assay: Antitrypanosomal activity against bloodstream form of Trypanosoma brucei assessed as parasite growth inhibition; type: functional, organism-based
[9] = Selectivity index, ratio of IC50 for cytotoxicity against mouse peritoneal macrophage cells to IC50 for antileishmanial activity against Leishmania donovani promastigotes; type: toxicity, cell-based; settings: read-out: Ratio IC50
[10] = tested on: Leishmania donovani; assay: Antileishmanial activity against amastigote form of Leishmania donovani assessed as parasite growth inhibition; type: functional, organism-based
[11] = Selectivity index, ratio of IC50 for cytotoxicity against rat L6 cells to IC50 for antitrypanosomal activity against intracellular Trypanosoma cruzi amastigote; type: toxicity, cell-based; settings: read-out: Ratio IC50
[12] = Selectivity index, ratio of IC50 for cytotoxicity against rat L6 cells to IC50 for antileishmanial activity against amastigote form of Leishmania donovani; type: toxicity, cell-based; settings: read-out: Ratio IC50
[13] = tested on: Trypanosoma cruzi; assay: Antitrypanosomal activity against trypomastigote form of Trypanosoma cruzi assessed as reduction in parasite growth; type: functional, organism-based
[14] = tested on: Leishmania donovani; assay: Antileishmanial activity against Leishmania donovani promastigotes infected in golden hamster assessed as reduction in parasite load in spleen at 3.5 mg/kg administered twice per week for 4 weeks relative to control; type: functional; design: scale not given: the % may be the effect or the level left
[15] = tested on: Leishmania infantum; assay: Antileishmanial activity against amastigote stage of Leishmania infantum; type: functional, organism-based
[16] = Selectivity index, ratio of IC50 for cytotoxicity against human MRC5 cells to IC50 for antitrypanosomal activity against intracellular Trypanosoma cruzi amastigote; type: toxicity, cell-based; settings: read-out: Ratio IC50
[17] = Selectivity index, ratio of IC50 for cytotoxicity against human MRC5 cells to IC50 for antileishmanial activity against amastigote stage of Leishmania infantum; type: toxicity, cell-based; settings: read-out: Ratio IC50
[18] = Selectivity index, ratio of IC50 for cytotoxicity against human MRC5 cells to IC50 for antitrypanosomal activity against bloodstream form of Trypanosoma brucei; type: toxicity, cell-based; settings: read-out: Ratio IC50
[19] = tested on: THP-1; assay: Cytotoxicity against human THP-1 cells; type: functional, cell-based
[20] = tested on: Trypanosoma cruzi; assay: Antitrypanosomal activity against Trypanosoma cruzi amastigote; type: functional, organism-based
[21] = tested on: Trypanosoma brucei rhodesiense; assay: Antitrypanosomal activity against Trypanosoma brucei rhodesiense bloodstream form
[22] = tested on: Leishmania donovani; assay: Antileishmanial activity against amastigote form of Leishmania donovani HU3 infected in Balb/c mouse assessed as parasite growth inhibition at 30 mg/kg, ip for 5 days relative to control; type: functional; settings: HU3, 120 h, time 5 day
[23] = tested on: Leishmania donovani; assay: Antileishmanial activity against Leishmania donovani promastigotes infected in golden hamster assessed as reduction in parasite load in spleen at 14.0 mg/kg administered twice per week for 4 weeks relative to control; type: functional; design: scale not given: the % may be the effect or the level left
[24] = Selectivity index, ratio of CC50 for cytotoxicity against rat L6 cells to IC50 for antitrypanosomal activity against bloodstream form of Trypanosoma brucei rhodesiense; type: toxicity, cell-based; settings: read-out: Ratio CC50/IC50
[25] = Selectivity index, ratio of IC50 for cytotoxicity against African green monkey Vero cells to IC50 for antitrypanosomal activity against Trypanosoma cruzi amastigote; type: toxicity, cell-based; settings: read-out: Ratio IC50
[26] = tested on: Leishmania major; assay: Antileishmanial activity against Leishmania major promastigotes assessed as parasite growth inhibition; type: functional, organism-based

COc1ccc(-c2oc3cc(OC)c(OC)c(O)c3c(=O)c2OC)cc1OC [ARTEMETIN]
selectivity ratio [1]: 9.8
EC50 [2]: 12.1 µM

O=C(Cn1ccnc1[N+](=O)[O-])NCc1ccccc1 [BENZNIDAZOLE]
EC50 [3]: 9.3 µM

COc1cccc2oc3c(Cl)c(O)c([C@H]4CCC[C@@H](C)O4)c(O)c3c(=O)c12 [CHAETOXANTHONE C]
EC50 [2]: 109 µM
EC50 [4]: 7.9 µM
EC50 [5]: 3.8 µM

CCCCCCC1CCCC(C2CCC([C@H]3CC[C@H]([C@H](O)CCCCCCCCCCCCC4=C[C@H](C)OC4=O)O3)O2)O1 (stereo partly drawn) [CHAMUVARININ]
EC50 [6]: 1.3 µM

C[n+]1c2ccccc2cc2[n-]c3ccccc3c21 [CRYPTOLEPINE]
selectivity ratio [7]: 29.3
EC50 [4]: 1.6 µM
EC50 [8]: 0.3 µM
selectivity ratio [9]: 0.7

O=c1c(O)c(-c2ccccc2)oc2ccccc12 [FLAVONOL]
EC50 [10]: 3 µM
selectivity ratio [1]: 29
EC50 [2]: 2.2 µM
selectivity ratio [11]: 2
EC50 [5]: 33 µM
selectivity ratio [12]: 21

C=C1C(=O)O[C@H]2C[C@@](C)(O)C3=CC[C@](C)(O)[C@@H]3C[C@H]12 [GUAIANOLIDE]
EC50 [5]: 67 µM
EC50 [3]: 18.1 µM
EC50 [13]: 5.7 µM

COc1cc(-c2oc3cc(O)cc(O)c3c(=O)c2O)ccc1O [ISORHAMNETIN]
selectivity ratio [1]: 4.6
selectivity ratio [12]: 10.7

O=c1cc(-c2ccc(O)c(O)c2)oc2cc(O)cc(O)c12 [LUTEOLIN]
EC50 [10]: 2.8 µM
Activity [14]: 80%
selectivity ratio [1]: 3
EC50 [2]: 14.1 µM
selectivity ratio [12]: 12

CC/C=C(C)/C=C/CCC[C@]1(OC)C[C@H](C)[C@H](CC(=O)OC)OO1 [MANADOPEROXIDE B]
EC50 [2]: 0.0088 µM

COc1c(O)cc2oc3cc(O)c(CC=C(C)C)c(O)c3c(=O)c2c1CC=C(C)C [MANGOSTIN]
EC50 [15]: 8 µM
selectivity ratio [16]: 0.84
EC50 [5]: 8.9 µM
selectivity ratio [17]: 0.93
EC50 [8]: 7.9 µM
selectivity ratio [18]: 0.95

CCCCCCCCCCCCCCCCOP(=O)([O-])OCC[N+](C)(C)C [MILTEFOSINE]
EC50 [3]: 0.92 µM
EC50 [19]: 4.67 µM

Cn1c2nc3ccccc3c-2cc2ccccc21 [NEOCRYPTOLEPINE]
EC50 [10]: 49.5 µM
EC50 ([20]; Trypanosoma cruzi): 2 µM
EC50 [21]: 2.2 µM

CC1CS(=O)(=O)CCN1/N=C/c1ccc([N+](=O)[O-])o1 (stereo not drawn) [NIFURTIMOX]
EC50 [10]: 0.004 µM
EC50 [4]: 0.024 µM
EC50 [3]: 1.5 µM

NC[C@@H]1O[C@H](O[C@H]2[C@@H](O)[C@H](O[C@@H]3[C@@H](O)[C@H](N)C[C@H](N)[C@H]3O[C@H]3O[C@H](CO)[C@@H](O)[C@H](O)[C@H]3N)O[C@@H]2CO)[C@H](N)[C@@H](O)[C@@H]1O [PAROMOMYCIN]
EC50 [10]: 0.007 µM
EC50 [2]: 22.7 µM
EC50 [4]: 0.005 µM

N=C(N)c1ccc(OCCCCCOc2ccc(C(=N)N)cc2)cc1 [PENTAMIDINE]
EC50 [19]: 15.8 µM

O=c1c(O)c(-c2ccc(O)c(O)c2)oc2cc(O)cc(O)c12 [QUERCETIN]
EC50 [10]: 3.3 µM
inhibition in vivo at 30 mg/kg [22]: 15%
EC50 [6]: 25.8 µM
Activity [23]: 90%

Nc1nc([C@H]2[C@H](CNC(=O)c3cc(Br)c[nH]3)[C@@H](CNC(=O)c3cc(Br)c[nH]3)[C@@H]2c2c[nH]c(N)n2)c[nH]1 [SCEPTRIN]
EC50 [10]: 83 µM
EC50 [2]: 15.7 µM
EC50 [5]: 96 µM
selectivity ratio [24]: > 10

COc1cc2c(c3oc4cccc(O)c4c(=O)c13)[C@@H]1C=CO[C@@H]1O2 [STERIGMATOCYSTIN]
selectivity ratio [25]: 0.46
EC50 [20]: 0.13 µM

CC(C)[C@@H]1NC(=O)[C@H](C)OC(=O)[C@@H](C(C)C)NC(=O)[C@@H](C(C)C)OC(=O)[C@H](C(C)C)NC(=O)[C@H](C)OC(=O)[C@@H](C(C)C)NC(=O)[C@@H](C(C)C)OC(=O)[C@H](C(C)C)NC(=O)[C@H](C)OC(=O)[C@@H](C(C)C)NC(=O)[C@@H](C(C)C)OC1=O [VALINOMYCIN]
EC50 [6]: 0.0032 µM
EC50 [26]: < 0.11 µM
